Measured values from patent US12077503B2, “Substituted cyclic amides and their use as herbicides” (FMC CORPORATION, priority 2015, dated 2024).

Legend:
Test in all cases: Test C preemergence
Format in all cases: in vivo
[1] = system: ryegrass, Italian (Italian ryegrass, Lolium multiflorum); conditions: for Plant response rating, Ryegrass, Italian: scale 0 to 100, 0 no effect, 100 complete control
How it was run: (§1)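 Visual 0 (no effect) to 100 (complete control) ratings versus controls, taken 13–15 d after treatment in the greenhouse; dash means no result. Compounds in a surfactant-containing non-phytotoxic solvent blend were applied preemergence to seeds in loam-sand soil or postemergence to 1- to 4-leaf plants (2–18 cm) in peat-based medium.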

[2] = system: Galium (catchweed bedstraw, Galium aparine); conditions: for Plant response rating, Galium: scale 0 to 100, 0 no effect, 100 complete control
How it was run: as §1

[3] = system: wheat (winter wheat, Triticum aestivum); conditions: for Plant response rating, Wheat: scale 0 to 100, 0 no effect, 100 complete control
How it was run: as §1

corn (Zea mays) = conditions: for Plant response rating, Corn: scale 0 to 100, 0 no effect, 100 complete control
How it was run: as §1

[4] = system: blackgrass (Alopecurus myosuroides); conditions: for Plant response rating, Blackgrass: scale 0 to 100, 0 no effect, 100 complete control
How it was run: as §1

[5] = system: velvetleaf (Abutilon theophrasti); conditions: for Plant response rating, Velvetleaf: scale 0 to 100, 0 no effect, 100 complete control
How it was run: as §1

[6] = system: ragweed (common ragweed, Ambrosia elatior); conditions: for Plant response rating, Ragweed: scale 0 to 100, 0 no effect, 100 complete control
How it was run: as §1

[7] = system: oilseed rape (Brassica napus); conditions: for Plant response rating, Oilseed Rape: scale 0 to 100, 0 no effect, 100 complete control
How it was run: as §1

[8] = system: nutsedge, yellow (yellow nutsedge, Cyperus esculentus); conditions: for Plant response rating, Nutsedge, Yellow: scale 0 to 100, 0 no effect, 100 complete control
How it was run: as §1

[9] = system: foxtail, giant (giant foxtail, Setaria faberii); conditions: for Plant response rating, Foxtail, Giant: scale 0 to 100, 0 no effect, 100 complete control
How it was run: as §1

soybean (Glycine max) = conditions: for Plant response rating, Soybean: scale 0 to 100, 0 no effect, 100 complete control
How it was run: as §1

[10] = system: morningglory (Ipomoea coccinea); conditions: for Plant response rating, Morningglory: scale 0 to 100, 0 no effect, 100 complete control
How it was run: as §1

[11] = system: waterhemp (common waterhemp, Amaranthus rudis); conditions: for Plant response rating, Waterhemp: scale 0 to 100, 0 no effect, 100 complete control
How it was run: as §1

[12] = system: lambsquarters (Chenopodium album); conditions: for Plant response rating, Lambsquarters: scale 0 to 100, 0 no effect, 100 complete control
How it was run: as §1

[13] = system: crabgrass, large (large crabgrass, Digitaria sanguinalis); conditions: for Plant response rating, Crabgrass, Large: scale 0 to 100, 0 no effect, 100 complete control
How it was run: as §1

[14] = system: johnsongrass (Sorghum halepense); conditions: for Plant response rating, Johnsongrass: scale 0 to 100, 0 no effect, 100 complete control
How it was run: as §1

[15] = system: barnyardgrass (Echinochloa crus-galli); conditions: for Plant response rating, Barnyardgrass: scale 0 to 100, 0 no effect, 100 complete control
How it was run: as §1

[16] = 31 g ai/ha, 0 is no effect, 100 is complete control

O=C1NCC(c2cccc(OC(F)(F)C(F)F)c2)C1C(=O)Nc1cccc(F)c1F (racemic) [Compound 697]
Plant response rating (scale of 0 to 100), Ryegrass, Italian [1, 16]: 15 | Plant response rating, Ryegrass, Italian ([1]; 62 g ai/ha): 55 | Plant response rating, Ryegrass, Italian ([1]; 125 g ai/ha): 45 | Plant response rating, Ryegrass, Italian ([1]; 250 g ai/ha): 50 | Plant response rating (scale of 0 to 100), Galium [2, 16]: 0 | Plant response rating, Galium ([2]; 62 g ai/ha): 85 | Plant response rating, Galium ([2]; 125 g ai/ha): 85 | Plant response rating, Galium ([2]; 250 g ai/ha): 90 | Plant response rating (scale of 0 to 100), Wheat [3, 16]: 0 | Plant response rating, Wheat ([3]; 62 g ai/ha): 0 | Plant response rating, Wheat ([3]; 125 g ai/ha): 10 | Plant response rating, Wheat ([3]; 250 g ai/ha): 35 | Plant response rating (scale of 0 to 100), Corn (corn (Zea mays); [16]): 40 | Plant response rating, Corn (corn (Zea mays); 62 g ai/ha): 65 | Plant response rating, Corn (corn (Zea mays); 125 g ai/ha): 80 | Plant response rating, Corn (corn (Zea mays); 250 g ai/ha): 75 | Plant response rating (scale of 0 to 100), Blackgrass [4, 16]: 70 | Plant response rating, Blackgrass ([4]; 62 g ai/ha): 75 | Plant response rating, Blackgrass ([4]; 125 g ai/ha): 90 | Plant response rating, Blackgrass ([4]; 250 g ai/ha): 90 | Plant response rating (scale of 0 to 100), Velvetleaf [5, 16]: 0 | Plant response rating, Velvetleaf ([5]; 62 g ai/ha): 25 | Plant response rating, Velvetleaf ([5]; 125 g ai/ha): 65 | Plant response rating, Velvetleaf ([5]; 250 g ai/ha): 35 | Plant response rating (scale of 0 to 100), Ragweed [6, 16]: 60 | Plant response rating, Ragweed ([6]; 62 g ai/ha): 80 | Plant response rating, Ragweed ([6]; 125 g ai/ha): 80 | Plant response rating, Ragweed ([6]; 250 g ai/ha): 80 | Plant response rating (scale of 0 to 100), Oilseed Rape [7, 16]: 20 | Plant response rating, Oilseed Rape ([7]; 62 g ai/ha): 70 | Plant response rating, Oilseed Rape ([7]; 125 g ai/ha): 80 | Plant response rating, Oilseed Rape ([7]; 250 g ai/ha): 85 | Plant response rating (scale of 0 to 100), Nutsedge, Yellow [8, 16]: 0 | Plant response rating, Nutsedge, Yellow ([8]; 62 g ai/ha): 0 | Plant response rating, Nutsedge, Yellow ([8]; 125 g ai/ha): 0 | Plant response rating, Nutsedge, Yellow ([8]; 250 g ai/ha): 0 | Plant response rating (scale of 0 to 100), Foxtail, Giant [9, 16]: 85 | Plant response rating, Foxtail, Giant ([9]; 62 g ai/ha): 85 | Plant response rating, Foxtail, Giant ([9]; 125 g ai/ha): 90 | Plant response rating, Foxtail, Giant ([9]; 250 g ai/ha): 90 | Plant response rating (scale of 0 to 100), Soybean (soybean (Glycine max); [16]): 0 | Plant response rating, Soybean (soybean (Glycine max); 62 g ai/ha): 10 | Plant response rating, Soybean (soybean (Glycine max); 125 g ai/ha): 0 | Plant response rating, Soybean (soybean (Glycine max); 250 g ai/ha): 10 | Plant response rating (scale of 0 to 100), Morningglory [10, 16]: 10 | Plant response rating, Morningglory ([10]; 62 g ai/ha): 10 | Plant response rating, Morningglory ([10]; 125 g ai/ha): 25 | Plant response rating, Morningglory ([10]; 250 g ai/ha): 30 | Plant response rating (scale of 0 to 100), Waterhemp [11, 16]: 80 | Plant response rating, Waterhemp ([11]; 62 g ai/ha): 80 | Plant response rating, Waterhemp ([11]; 125 g ai/ha): 85 | Plant response rating, Waterhemp ([11]; 250 g ai/ha): 85 | Plant response rating (scale of 0 to 100), Lambsquarters [12, 16]: 35 | Plant response rating, Lambsquarters ([12]; 62 g ai/ha): 40 | Plant response rating, Lambsquarters ([12]; 125 g ai/ha): 65 | Plant response rating, Lambsquarters ([12]; 250 g ai/ha): 60 | Plant response rating (scale of 0 to 100), Crabgrass, Large [13, 16]: 90 | Plant response rating, Crabgrass, Large ([13]; 62 g ai/ha): 95 | Plant response rating, Crabgrass, Large ([13]; 125 g ai/ha): 90 | Plant response rating, Crabgrass, Large ([13]; 250 g ai/ha): 95 | Plant response rating (scale of 0 to 100), Johnsongrass [14, 16]: 70 | Plant response rating, Johnsongrass ([14]; 62 g ai/ha): 75 | Plant response rating, Johnsongrass ([14]; 125 g ai/ha): 85 | Plant response rating, Johnsongrass ([14]; 250 g ai/ha): 85 | Plant response rating (scale of 0 to 100), Barnyardgrass [15, 16]: 85 | Plant response rating, Barnyardgrass ([15]; 62 g ai/ha): 90 | Plant response rating, Barnyardgrass ([15]; 125 g ai/ha): 90 | Plant response rating, Barnyardgrass ([15]; 250 g ai/ha): 90
